Experimental data from patent publication US20260285875A1, “INHIBITORS OF PARG” (858 Therapeutics, Inc., priority 2023, published 2026).
pIC50: −log10 of the molar value.

target: T1, cellular PARG (Homo sapiens, UniProt Q86W56); assay: Nuclear PAR accumulation assay (immunofluorescence high-content imaging, MMS-treated HeLa cells); format: cell-based; conditions: 1 hour compound then MMS 50 μg/mL for an additional hour
T1 construct: endogenous in cells; host or cells: HeLa
Procedure, shortened: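 HeLa cells pretreated with compound for 1 h at 37° C, then given 50 μg/mL MMS for another hour. After methanol fixation, PAR was immunostained with DAPI nuclear counterstain; per-nucleus intensity and percent PAR-positive cells were imaged at 20× (≥1,000 cells/well). IC50 from four-parameter logistic fit.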

T1 sequence (Q86W56 whole entry): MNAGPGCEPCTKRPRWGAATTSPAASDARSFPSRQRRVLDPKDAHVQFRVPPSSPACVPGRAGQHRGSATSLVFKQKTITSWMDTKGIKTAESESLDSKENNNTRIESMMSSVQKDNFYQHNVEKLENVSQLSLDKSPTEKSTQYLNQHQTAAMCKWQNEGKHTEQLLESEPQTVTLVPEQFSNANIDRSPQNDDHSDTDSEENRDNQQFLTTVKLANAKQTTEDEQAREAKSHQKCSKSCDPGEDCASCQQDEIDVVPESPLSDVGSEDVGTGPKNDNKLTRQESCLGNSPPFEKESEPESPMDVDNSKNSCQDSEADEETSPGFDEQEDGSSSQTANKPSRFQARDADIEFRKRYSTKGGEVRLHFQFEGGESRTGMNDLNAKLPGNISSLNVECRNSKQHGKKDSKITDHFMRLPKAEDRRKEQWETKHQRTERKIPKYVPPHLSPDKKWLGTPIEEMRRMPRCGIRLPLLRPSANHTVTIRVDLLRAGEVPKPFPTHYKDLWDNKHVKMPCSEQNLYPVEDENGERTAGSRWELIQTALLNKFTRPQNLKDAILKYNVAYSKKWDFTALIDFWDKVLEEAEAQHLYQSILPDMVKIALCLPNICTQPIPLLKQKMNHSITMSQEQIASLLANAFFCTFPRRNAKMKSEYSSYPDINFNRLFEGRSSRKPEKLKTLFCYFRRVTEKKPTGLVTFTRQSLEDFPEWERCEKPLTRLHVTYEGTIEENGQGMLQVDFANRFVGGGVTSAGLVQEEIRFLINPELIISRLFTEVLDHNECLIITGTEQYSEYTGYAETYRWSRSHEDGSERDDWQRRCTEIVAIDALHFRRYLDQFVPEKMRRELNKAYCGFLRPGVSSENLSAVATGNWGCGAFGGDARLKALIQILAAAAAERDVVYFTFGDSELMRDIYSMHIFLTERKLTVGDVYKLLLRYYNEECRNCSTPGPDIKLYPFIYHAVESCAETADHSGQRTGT

Compound | pIC50
Cn1cc(CN2C(=O)c3cc(S(=O)(=O)NC4(C)CC4)ccc3N3C2=NC[C@H]3C#Cc2cnn(C)n2)cn1 [Example 140, (R)-4-((1-methyl-1H-pyrazol-4-yl)methyl)-1-((2-methyl-2H-1,2,3-triazol-4-yl)ethynyl)-N-(1-methylcyclopropyl)-5-oxo-1,2,4,5-tetrahydroimidazo[1,2-a]quinazoline-7-sulfonamide] | > 7.00
Cn1cc(CN2C(=O)c3cc(S(=O)(=O)NC4(C)CC4)ccc3N3C2=NC[C@H]3COc2ccn(C)n2)cn1 [Example 141, (S)-1-(((1-methyl-1H-pyrazol-3-yl)oxy)methyl)-4-((1-methyl-1H-pyrazol-4-yl)methyl)-N-(1-methylcyclopropyl)-5-oxo-1,2,4,5-tetrahydroimidazo[1,2-a]quinazoline-7-sulfonamide] | 6.00 to 7.00
CN1C(=O)c2cc(S(=O)(=O)NC3(C)CC3)ccc2N2C1=NC[C@H]2C#Cc1ccc2nn(C)cc2c1 [Example 142, (R)-4-methyl-1-((2-methyl-2H-indazol-5-yl)ethynyl)-N-(1-methylcyclopropyl)-5-oxo-1,2,4,5-tetrahydroimidazo[1,2-a]quinazoline-7-sulfonamide] | > 7.00
Cn1cc(CN2C(=O)c3cc(S(=O)(=O)NC4(C)CC4)ccc3N3C2=NCC3COc2ccc(Cl)cc2)cn1 (stereo not shown) [Example 143, 1-((4-chlorophenoxy)methyl)-4-((1-methyl-1H-pyrazol-4-yl)methyl)-N-(1-methylcyclopropyl)-5-oxo-1,2,4,5-tetrahydroimidazo[1,2-a]quinazoline-7-sulfonamide] | 6.00 to 7.00
Cn1cc(CN2C(=O)c3cc(S(=O)(=O)NC4(C)CC4)ccc3N3C2=NC[C@H]3c2ccccc2)cn1 [Example 144, (R)-4-((1-methyl-1H-pyrazol-4-yl)methyl)-N-(1-methylcyclopropyl)-5-oxo-1-phenyl-1,2,4,5-tetrahydroimidazo[1,2-a]quinazoline-7-sulfonamide] | > 7.00
Cn1cc(CN2C(=O)c3cc(S(=O)(=O)NC4(C)CC4)ccc3N3C2=N[C@H]2CCCC[C@H]23)cn1 [Example 145, (7aS,11aR)-6-((1-methyl-1H-pyrazol-4-yl)methyl)-N-(1-methylcyclopropyl)-5-oxo-5,6,7a,8,9,10,11,11a-octahydrobenzo[4,5]imidazo[1,2-a]quinazoline-3-sulfonamide] | > 7.00
C[C@@H]1CN=C2N(Cc3cnn(C)c3)C(=O)c3cc(S(=O)(=O)NC4(C)CC4)cc(N4CC(C)(C#N)C4)c3N21 [Example 146, (R)-9-(3-cyano-3-methylazetidin-1-yl)-1-methyl-4-((1-methyl-1H-pyrazol-4-yl)methyl)-N-(1-methylcyclopropyl)-5-oxo-1,2,4,5-tetrahydroimidazo[1,2-a]quinazoline-7-sulfonamide] | 5.00 to 6.00
CN1C(=O)c2cc(S(=O)(=O)NC3(C)CC3)ccc2N2C1=NC[C@H]2C#Cc1ccc2cn(C)nc2c1 [Example 147, (R)-4-methyl-1-((2-methyl-2H-indazol-6-yl)ethynyl)-N-(1-methylcyclopropyl)-5-oxo-1,2,4,5-tetrahydroimidazo[1,2-a]quinazoline-7-sulfonamide] | > 7.00
CN1C(=O)c2cc(S(=O)(=O)NC3(C)CC3)ccc2N2C1=NC[C@H]2C#Cc1ccc2c(cnn2C)c1 [Example 148, (R)-4-methyl-1-((1-methyl-1H-indazol-5-yl)ethynyl)-N-(1-methylcyclopropyl)-5-oxo-1,2,4,5-tetrahydroimidazo[1,2-a]quinazoline-7-sulfonamide] | > 7.00
CN1C(=O)c2cc(S(=O)(=O)NC3(C)CC3)ccc2N2C1=NC[C@H]2C#Cc1cnc2cccnn12 [Example 149, (R)-1-(imidazo[1,2-b]pyridazin-3-ylethynyl)-4-methyl-N-(1-methylcyclopropyl)-5-oxo-1,2,4,5-tetrahydroimidazo[1,2-a]quinazoline-7-sulfonamide] | > 7.00
Cn1cc(CN2C(=O)c3cc(S(=O)(=O)NC4(C)CC4)ccc3N3C2=NCC3COc2ccon2)cn1 (stereo not shown) [Example 150, 1-((isoxazol-3-yloxy)methyl)-4-((1-methyl-1H-pyrazol-4-yl)methyl)-N-(1-methylcyclopropyl)-5-oxo-1,2,4,5-tetrahydroimidazo[1,2-a]quinazoline-7-sulfonamide] | > 7.00
Cn1cc(CN2C(=O)c3cc(S(=O)(=O)NC4(C)CC4)ccc3N3C2=NCC3COc2ccccc2F)cn1 (stereo not shown) [Example 151, 1-((2-fluorophenoxy)methyl)-4-((1-methyl-1H-pyrazol-4-yl)methyl)-N-(1-methylcyclopropyl)-5-oxo-1,2,4,5-tetrahydroimidazo[1,2-a]quinazoline-7-sulfonamide] | > 7.00
CN(C)C1(C#C[C@@H]2CN=C3N(CC4(F)CC4)C(=O)c4cc(S(=O)(=O)NC5(C)CC5)ccc4N32)CC1 [Example 152, (R)-1-((1-(dimethylamino)cyclopropyl)ethynyl)-4-((1-fluorocyclopropyl)methyl)-N-(1-methylcyclopropyl)-5-oxo-1,2,4,5-tetrahydroimidazo[1,2-a]quinazoline-7-sulfonamide] | > 7.00
C#C[C@@H]1CN=C2N(Cc3cnc(C)o3)C(=O)c3cc(S(=O)(=O)NC4(C)CC4)ccc3N21 [Example 153, (R)-1-ethynyl-N-(1-methylcyclopropyl)-4-((2-methyloxazol-5-yl)methyl)-5-oxo-1,2,4,5-tetrahydroimidazo[1,2-a]quinazoline-7-sulfonamide] | > 7.00
Cn1cc(CN2C(=O)c3cc(S(=O)(=O)NC4(C)CC4)ccc3N3C[C@H](COCc4ccccc4)N=C23)cn1 [Example 154, (R)-2-((benzyloxy)methyl)-4-((1-methyl-1H-pyrazol-4-yl)methyl)-N-(1-methylcyclopropyl)-5-oxo-1,2,4,5-tetrahydroimidazo[1,2-a]quinazoline-7-sulfonamide] | > 7.00
Cn1cc(CN2C(=O)c3cc(S(=O)(=O)NC4(C)CC4)ccc3N3C[C@H](c4ccccc4)N=C23)cn1 [Example 155, (S)-4-((1-methyl-1H-pyrazol-4-yl)methyl)-N-(1-methylcyclopropyl)-5-oxo-2-phenyl-1,2,4,5-tetrahydroimidazo[1,2-a]quinazoline-7-sulfonamide] | > 7.00
C#C[C@H]1CN2C(=N1)N(Cc1cnn(C)c1)C(=O)c1cc(S(=O)(=O)NC3(C)CC3)ccc12 [Example 156, (S)-2-ethynyl-4-((1-methyl-1H-pyrazol-4-yl)methyl)-N-(1-methylcyclopropyl)-5-oxo-1,2,4,5-tetrahydroimidazo[1,2-a]quinazoline-7-sulfonamide] | 6.00 to 7.00
Cn1cc(CN2C(=O)c3cc(S(=O)(=O)NC4(C)CC4)ccc3N3C2=N[C@H]2CCOC[C@H]23)cn1 [Example 157, (7aS,1laS)-6-((1-methyl-1H-pyrazol-4-yl)methyl)-N-(1-methylcyclopropyl)-5-oxo-6,7a,8,9,11,11a-hexahydro-5H-pyrano[4′,3′:4,5]imidazo[1,2-a]quinazoline-3-sulfonamide] | > 7.00
Cn1cc(CN2C(=O)c3cc(S(=O)(=O)NC4(C)CC4)ccc3N3C2=N[C@H]2COCC[C@H]23)cn1 [Example 158, (7aR,11aR)-6-((1-methyl-1H-pyrazol-4-yl)methyl)-N-(1-methylcyclopropyl)-5-oxo-5,6,7a,10,11,11a-hexahydro-8H-pyrano[3′,4′:4,5]imidazo[1,2-a]quinazoline-3-sulfonamide] | 6.00 to 7.00
Cn1cc(CN2C(=O)c3cc(S(=O)(=O)NC4(C)CC4)ccc3N3C2=N[C@H]2CNCC[C@H]23)cn1 [Example 159, (7aS,11aR)-6-((1-methyl-1H-pyrazol-4-yl)methyl)-N-(1-methylcyclopropyl)-5-oxo-5,6,7a,8,9,10,11,11a-octahydropyrido[3′,4′:4,5]imidazo[1,2-a]quinazoline-3-sulfonamide] | 5.00 to 6.00
Cn1cc(CN2C(=O)c3cc(S(=O)(=O)NC4(C)CC4)ccc3N3C2=N[C@H]2CCNC[C@H]23)cn1 [Example 160, (7aS,11aR)-6-((1-methyl-1H-pyrazol-4-yl)methyl)-N-(1-methylcyclopropyl)-5-oxo-5,6,7a,8,9,10,11,11a-octahydropyrido[4′,3′:4,5]imidazo[1,2-a]quinazoline-3-sulfonamide] | 6.00 to 7.00
CN(C)C(=O)N1CC[C@@H]2N=C3N(Cc4cnn(C)c4)C(=O)c4cc(S(=O)(=O)NC5(C)CC5)ccc4N3[C@@H]2C1 [Example 161, (7aS,11aR)-N,N-dimethyl-6-((1-methyl-1H-pyrazol-4-yl)methyl)-3-(N-(1-methylcyclopropyl)sulfamoyl)-5-oxo-6,7a,8,9,11,1la-hexahydropyrido[4′,3′:4,5]imidazo[1,2-a]quinazoline-10(5H)-carboxamide] | 5.00 to 6.00
C#CCn1cc(CN2C(=O)c3cc(S(=O)(=O)NC4(C)CC4)ccc3N3C2=NC[C@H]3C)cn1 [Example 162, (R)-1-methyl-N-(1-methylcyclopropyl)-5-oxo-4-((1-(prop-2-yn-1-yl)-1H-pyrazol-4-yl)methyl)-1,2,4,5-tetrahydroimidazo[1,2-a]quinazoline-7-sulfonamide] | > 7.00
[2H]C([2H])(c1cnn(C)c1)N1C(=O)c2cc(S(=O)(=O)NC3(C)CC3)ccc2N2C1=NC[C@H]2C#Cc1cnn(C)n1 [Example 163, (R)-4-((1-methyl-1H-pyrazol-4-yl)methyl-d2)-1-((2-methyl-2H-1,2,3-triazol-4-yl)ethynyl)-N-(1-methylcyclopropyl)-5-oxo-1,2,4,5-tetrahydroimidazo[1,2-a]quinazoline-7-sulfonamide] | > 7.00
CSCC#C[C@@H]1CN=C2N(Cc3cnn(C)c3)C(=O)c3cc(S(=O)(=O)NC4(C)CC4)ccc3N21 [Example 164, (R)-4-((1-methyl-1H-pyrazol-4-yl)methyl)-N-(1-methylcyclopropyl)-1-(3-(methylthio)prop-1-yn-1-yl)-5-oxo-1,2,4,5-tetrahydroimidazo[1,2-a]quinazoline-7-sulfonamide] | > 7.00
